Measurements taken from patent EP0672658B1, “Antithrombotic agents” (priority 1994, dated 1995).
Structures can show the parent of a compound that is named as a salt.

Assays:
Human Thrombin = Human Thrombin (Homo sapiens, UniProt P00734); test: biochemical; details: read-out: Kass Human Thrombin (converted)
human or animal plasma [1] = test: Anticoagulation determination in plasma: prothrombin time (PT); type: biochemical; details: concentration doubling prothrombin time
How it was run: (§1)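 Compounds spiked over a concentration range into citrated human, dog or rat plasma. PT used Thromboplastin-C; APTT used Actin reagent 120 s then 0.02 M CaCl2; TT used bovine thrombin 10 NIH units/mL. Concentration doubling clotting time estimated by linear extrapolation.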

Plasmin = target: T1, Plasmin (Homo sapiens, UniProt P00747); test: biochemical; details: read-out: Kass Plasmin (converted)
T1 construct: Human plasmin is purchased; purchased Boehringer Mannheim, Indianapolis, Indiana
T1 sequence (P00747 581-810 limits assumed): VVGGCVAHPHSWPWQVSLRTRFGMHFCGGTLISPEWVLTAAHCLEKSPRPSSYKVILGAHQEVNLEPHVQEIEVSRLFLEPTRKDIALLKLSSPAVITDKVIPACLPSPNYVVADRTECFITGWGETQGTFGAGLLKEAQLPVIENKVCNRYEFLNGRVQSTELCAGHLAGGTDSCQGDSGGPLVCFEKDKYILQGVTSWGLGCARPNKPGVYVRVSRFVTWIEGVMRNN
T1 sequence (P00747 97-580 partner limits assumed): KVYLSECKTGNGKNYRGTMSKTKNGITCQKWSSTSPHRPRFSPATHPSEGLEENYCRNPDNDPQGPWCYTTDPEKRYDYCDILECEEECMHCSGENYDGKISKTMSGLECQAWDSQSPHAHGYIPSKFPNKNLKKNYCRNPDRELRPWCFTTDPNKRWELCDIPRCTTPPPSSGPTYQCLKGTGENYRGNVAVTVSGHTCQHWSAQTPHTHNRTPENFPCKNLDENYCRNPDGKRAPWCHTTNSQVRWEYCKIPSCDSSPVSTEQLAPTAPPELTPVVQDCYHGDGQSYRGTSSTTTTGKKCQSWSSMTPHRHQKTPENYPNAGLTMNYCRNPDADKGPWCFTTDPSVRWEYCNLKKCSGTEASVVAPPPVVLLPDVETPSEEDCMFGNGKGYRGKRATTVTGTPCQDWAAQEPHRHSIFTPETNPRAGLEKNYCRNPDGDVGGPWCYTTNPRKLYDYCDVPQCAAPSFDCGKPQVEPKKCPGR
Experimental: (§2) By substantially following the procedures described above for human thrombin, and using other human blood coagulation system serine proteases and proteases of the fibrinolytic system with the appropriate chromogenic substrates, identified below, selectivity of the compounds of the present invention with respect to the coagulation factor serine proteases and with respect to the fibrinolytic system serine proteases are evaluated as well as their substantial lack of interference with serine proteases of the fibrinolytic system. Thrombin inhibitors preferably should spare fibrinolysis induced by urokinase, tissue plasminogen activator (t-PA) and streptokinase. This would be important to the therapeutic use of such agents as an adjunct to streptokinase, t-PA or urokinase thrombolytic therapy and to the use of such agents as an endogenous fibrinolysis-sparing (with respect to t-PA and urokinase) antithrombotic agent. In addition to the lack of interference with the amidase activity of the fibrinolytic proteases, such fibrinolytic system sparing can be studied by the use of human plasma clots and their lysis by the respective fibrinolytic plasminogen activators.
(§3) Human plasmin is purchased from Boehringer Mannheim, Indianapolis, Indiana; nt-PA is purchased as single chain activity reference from American Diagnostica, Greenwich, Connecticut; modified-t-PA6 (mt-PA6) is prepared at Eli Lilly and Company by procedure known in the art (See, Burck, et al., J. Biol. Chem., 265, […] (1990). Plasmin chromogenic substrate H-D-Val-Leu-Lys-p-nitroanilide and tissue plasminogen activator (t-PA) substrate H-D-Ile-Pro-Arg-p-nitroanilide are purchased from Kabi Vitrum, Stockholm, Sweden.

t-PA = t-PA (Homo sapiens, UniProt P00750); test: biochemical; details: read-out: Kass t-PA (converted)
Chain of t-PA (P00750 36-562): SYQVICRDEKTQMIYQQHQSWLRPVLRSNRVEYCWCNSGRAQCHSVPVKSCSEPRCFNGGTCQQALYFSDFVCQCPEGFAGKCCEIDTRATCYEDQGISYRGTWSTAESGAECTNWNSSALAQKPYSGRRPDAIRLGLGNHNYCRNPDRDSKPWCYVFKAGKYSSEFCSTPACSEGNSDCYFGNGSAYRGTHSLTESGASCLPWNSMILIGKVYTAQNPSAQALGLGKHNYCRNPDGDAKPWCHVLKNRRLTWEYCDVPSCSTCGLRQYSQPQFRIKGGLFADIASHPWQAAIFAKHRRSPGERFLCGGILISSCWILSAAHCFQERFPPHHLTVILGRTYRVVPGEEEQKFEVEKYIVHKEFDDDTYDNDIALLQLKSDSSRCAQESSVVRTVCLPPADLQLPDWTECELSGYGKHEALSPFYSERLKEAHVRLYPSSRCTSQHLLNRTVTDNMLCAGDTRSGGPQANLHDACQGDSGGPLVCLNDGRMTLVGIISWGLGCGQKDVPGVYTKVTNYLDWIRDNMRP
Experimental: as §2, §3

factor Xa = factor Xa (Homo sapiens, UniProt P00742); test: biochemical; details: read-out: Kass Xa (converted)
Chain of factor Xa (P00742 235-488 limits assumed): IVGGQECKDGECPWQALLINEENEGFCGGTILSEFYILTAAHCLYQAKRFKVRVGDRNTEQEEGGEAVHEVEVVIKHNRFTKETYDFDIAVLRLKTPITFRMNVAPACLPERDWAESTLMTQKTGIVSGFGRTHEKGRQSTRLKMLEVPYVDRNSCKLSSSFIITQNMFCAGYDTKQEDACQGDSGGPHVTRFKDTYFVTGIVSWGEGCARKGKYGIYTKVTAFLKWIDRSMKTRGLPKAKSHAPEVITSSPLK
Chain of factor Xa (P00742 41-179 partner limits assumed): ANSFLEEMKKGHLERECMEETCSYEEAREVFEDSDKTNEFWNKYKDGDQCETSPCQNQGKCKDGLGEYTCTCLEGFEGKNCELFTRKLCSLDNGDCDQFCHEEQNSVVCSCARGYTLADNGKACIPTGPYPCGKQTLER
Experimental: as §2
Human factors X, Xa, IXa, XIa, and XIIa are purchased from Enzyme Research Laboratories, South Bend, Indiana; human urokinase from Leo Pharmaceuticals, Denmark; and recombinant activated Protein C (aPC) is prepared at Eli Lilly and Co. substantially according to U.S. Patent 4,981,952. Chromogenic substrates: N-Benzoyl-Ile-Glu-Gly-Arg-p-nitroanilide (for factor Xa); N-Cbz-D-Arg-Gly-Arg-p-nitroanilide (for factor IXa assay as the factor Xa substrate); Pyroglutamyl-Pro-Arg-p-nitroanilide (for Factor XIa and for aPC); H-D-Pro-Phe-Arg-p-nitroanilide (for factor XIIa); and Pyroglutamyl-Gly-Arg-p-nitroanilide (for urokinase); are purchased from KabiVitrum, Stockholm, Sweden, or from Midwest Biotech, Fishers, Indiana. Bovine trypsin is purchased from Worthington Biochemicals, Freehold, New Jersey, and human plasma kallikrein from Kabi Vitrum, Stockholm, Sweden. Chromogenic substrate H-D-Pro-Phe-Arg-p-nitroanilide for plasma kallikrein is purchased from Kabi Vitrum, Stockholm, Sweden. N-Benzoyl-Phe-Val-Arg-p-nitroanilide, the substrate for human thrombin and for trypsin, is synthesized according to procedures described above for the compounds of the present invention, using known methods of peptide coupling from commercially available reactants or purchased from Midwest Biotech, Fishers, Indiana.

human or animal plasma [2] = test: Anticoagulation determination in plasma: thrombin time (TT); type: biochemical; details: concentration doubling thrombin time
How it was run: as §1

Trypsin = target: T2, Trypsin (Bos taurus, UniProt P00760); test: biochemical; set-up: species or system Bovine; details: read-out: Kass Trypsin (converted)
T2 sequence (P00760 24-246): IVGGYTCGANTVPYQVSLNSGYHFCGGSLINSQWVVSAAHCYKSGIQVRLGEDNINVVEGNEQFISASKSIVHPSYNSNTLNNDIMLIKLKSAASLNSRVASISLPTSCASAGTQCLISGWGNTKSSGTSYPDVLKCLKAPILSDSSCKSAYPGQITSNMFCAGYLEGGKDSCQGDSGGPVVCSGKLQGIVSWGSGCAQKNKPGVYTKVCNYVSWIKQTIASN
How it was run: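 Bovine trypsin and human factor Xa amidase activity measured chromogenically, following the human thrombin procedure. Substrates: N-Benzoyl-Ile-Glu-Gly-Arg-p-nitroanilide for factor Xa and N-Benzoyl-Phe-Val-Arg-p-nitroanilide for trypsin. Used for selectivity profiling.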

human or animal plasma [3] = test: Anticoagulation determination in plasma: activated partial thromboplastin time (APTT); type: biochemical; details: concentration doubling activated partial thromboplastin time
How it was run: as §1

Row | Structure (SMILES) | Kd (Human Thrombin) | Kd (Plasmin) | Kd (t-PA) | Kd (factor Xa) | Kd (Trypsin) | Human Plasma Anticoagulation 2x Clotting time (ng/mL) PT (human or animal plasma [1]) | Human Plasma Anticoagulation 2x Clotting time (ng/mL) TT (human or animal plasma [2]) | Human Plasma Anticoagulation 2x Clotting time (ng/mL) APTT (human or animal plasma [3])
1 | CCS(=O)(=O)N[C@@H](C(=O)N1[C@H](C(=O)NCc2ccc(C(=N)N)cc2)C[C@@H]2CCCC[C@@H]21)c1ccccc1 (relative stereo) [Example 44, EtSO2-Phg-cis-Ohi-p-NHCH2C6H4C(NH)NH2. HCl] | 0.00159 µM | 0.556 µM | 25 µM | 1.52 µM | 0.000385 µM | 170 ng/mL | 4. ng/mL | 100 ng/mL
2 | NCc1cccc(CNC(=O)[C@@H]2CCCN2C(=O)[C@H](N)Cc2ccccc2)c1 [Example 11, D-Phe-Pro-m-NHCH2C6H4CH2NH2·HCl] | 15.6 µM | 167 µM | > 1000 µM | 14700 µM | 278 µM |  | 8,800 ng/mL | 
3 | N=C(N)c1cccc(CNC(=O)[C@@H]2CCCN2C(=O)[C@H](N)Cc2ccccc2)c1 [Example 16, D-Phe-Pro-m-NHCH2C6H4C(NH)NH2·0.75HCl] | 1.03 µM | 588 µM | 833 µM | 196 µM | 50 µM | 8,500 ng/mL | 650 ng/mL | 8,600 ng/mL
4 | N=C(N)c1ccc(CNC(=O)[C@@H]2CCCN2C(=O)[C@@H]2NCC[C@@H]3CCCC[C@@H]32)cc1 [Example 18, 1-Piq-Pro-p-NHCH2C6H4C(NH)NH2·2HCl] | 0.00556 µM | 11.8 µM | 106 µM | 4.76 µM | 0.0714 µM | 170 ng/mL | 7 ng/mL | 79 ng/mL
5 | CCS(=O)(=O)N[C@H](Cc1ccccc1)C(=O)N1CCC[C@H]1C(=O)NCc1ccc(C(=N)N)cc1 [Example 23, EtSO2-D-Phe-Pro-p-NHCH2-C6H4C(=NH)NH2·HCl] | 0.0013 µM | 2.27 µM | 3.23 µM | 7.14 µM | 0.0476 µM | 120 ng/mL | 7 ng/mL | 86 ng/mL

Second part, led by results:

Row | Kd (Human Thrombin) | Kd (Plasmin) | Kd (t-PA) | Kd (factor Xa) | Kd (Trypsin) | Structure (SMILES) | Human Plasma Anticoagulation 2x Clotting time (ng/mL) PT (human or animal plasma [1]) | Human Plasma Anticoagulation 2x Clotting time (ng/mL) TT (human or animal plasma [2]) | Human Plasma Anticoagulation 2x Clotting time (ng/mL) APTT (human or animal plasma [3])
6 | 2.27 µM | 1150 µM | 23800 µM | 23800 µM | 455 µM | NC[C@H]1CC[C@H](CNC(=O)[C@@H]2CCCN2C(=O)[C@H](N)Cc2ccccc2)CC1 [Example 12, D-Phe-Pro-NHCH2-trans-4-(aminomethyl)cyclohexane·HCl] |  | 1,700 ng/mL | 
7 | 2.04 µM | 9090 µM | > 1000 µM | 1020 µM | 1520 µM | Nc1ccc(CNC(=O)[C@@H]2CCCN2C(=O)[C@H](N)Cc2ccccc2)cc1 [Example 13, D-Phe-Pro-p-NHCH2C6H4NH2·HCl] |  | 660 ng/mL | 
8 | 47.6 µM | 21700 µM | > 1000 µM | 7140 µM | 17900 µM | Nc1ccc(CCNC(=O)[C@@H]2CCCN2C(=O)[C@H](N)Cc2ccccc2)cc1 [Example 14, D-Phe-Pro-p-NHCH2CH2C6H4NH2·HCl] |  | 21,000 ng/mL | 
9 | 0.0303 µM | 41.7 µM | 294 µM | 20.4 µM | 0.263 µM | N=C(N)c1ccc(CNC(=O)[C@@H]2CCCN2C(=O)[C@H]2CCCCN2)cc1 [Example 17, D-hPro-Pro-p-NHCH2C6H4C(NH)NH2·HCl] | 400 ng/mL | 26 ng/mL | 370 ng/mL
10 | 0.0909 µM | 6.25 µM | 179 µM | 7.14 µM | 0.0244 µM | N=C(N)c1ccc(CNC(=O)[C@@H]2CCCN2C(=O)[C@H]2C[C@H]3CCCC[C@H]3CN2)cc1 [Example 19, D-3-Piq-Pro-p-NHCH2C6H4C(NH)NH2·3HCl] | 540 ng/mL | 58 ng/mL | 300 ng/mL
11 | 0.278 µM | 32.3 µM | 500 µM | 1.61 µM | 1.04 µM | N=C(N)c1ccc(CNC(=O)CN(CCc2ccccc2)C(=O)[C@H]2CCCCN2)cc1 [Example 21, D-hPro-N(PhCH2CH2)Gly-p-NHCH2-C6H4C(NH)NH2·2HCl] | 1,000 ng/mL | 160 ng/mL | 2,000 ng/mL
12 | 0.333 µM | 23.8 µM | 250 µM | 23.3 µM | 0.118 µM | N=C(N)c1ccc(CNC(=O)[C@@H]2C[C@H](Oc3ccccc3)CN2C(=O)[C@H]2CCCCN2)cc1 [Example 22, D-hPro-Pro(4-cis-PhO)-p-NHCH2-C6H4C(NH)NH2·2HCl] | 1,000 ng/mL | 170 ng/mL | 2,300 ng/mL
13 | 1.28 µM | > 1000 µM | > 1000 µM | > 1000 µM | 33.3 µM | CCS(=O)(=O)N[C@H](Cc1ccccc1)C(=O)N1CCC[C@H]1C(=O)NCc1cccc(C(=N)N)c1 [Example 24, EtSO2-D-Phe-Pro-m-NHCH2-C6H4C(=NH)NH2·HCl] | 25,000 ng/mL | 1,000 ng/mL | 25,900 ng/mL
